# Source: patent US6914045B2, “Glycopeptide antibiotics” (Wyeth Holdings Corporation, priority 2001, dated 2005)
# What was measured:
# [1] = anatomic pathology (histopathology of heart and kidney) in mice; assay type: in vivo; settings: CD-1 mice, 20 mg/kg intravenously daily for 9 days, necropsy day 10, microscopic histopathology
# Experimental: Samples of tissues from necropsied mice were formalin-fixed, paraffin-embedded, sectioned, stained with hematoxylin and eosin, and examined microscopically. Histopathologic findings were recorded. These findings were subjectively graded on a scale corresponding to slight, mild, moderate, marked and severe as compared to untreated controls.
# Staphylococcus sp. = assay: in vitro antibacterial evaluation, MIC by broth dilution; assay type: cell-based; settings: broth dilution, 18 hours at 35° C.
# How it was run: (§1)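 MIC = lowest antibiotic concentration preventing visible growth; inoculum 5×10^5 CFU/mL; drug range 64-0.06 μg/mL; Muller-Hinton II […]; NCCLS M7-A2 guidance.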
# Enterococcus sp. = assay: as above; assay type: cell-based; settings: broth dilution, 18 hours at 35° C.
# How it was run: as §1
# Escherichia coli = assay: as above; assay type: cell-based; settings: 18 hours at 35° C.
# How it was run: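 Inoculum 5×10^5 CFU/mL; concentrations 64 to 0.06 μg/mL; MIC defined as lowest inhibitory level. Conducted by broth dilution under NCCLS guidelines.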
# Streptococcus sp. = assay: as above; assay type: cell-based; settings: broth dilution, 18 hours at 35° C.
# How it was run: as §1
# [2] = clinical pathology (serum clinical chemistry) in mice; assay type: in vivo; settings: CD-1 mice, 20 mg/kg intravenously daily for 9 days, sera day 10
# Experimental: 20-day-old CD-1 mice were divided into a vehicle control group (5 mice) and a treatment group (5 mice). Samples of glycopeptide antibiotics were administered at 20 mg/kg intravenously daily for 9 days.
smiles,measurement,setting,value
CC(c1ccccc1)C1NC(=O)CNC(=O)C(CO)NC(=O)C(CC2CNC(=N)N2C2OC(CO)C(O)C(O)C2O)NC(=O)C(CC2CNC(=N)N2)NC(=O)C(Cc2ccc(OC3OC(CO)C(OC4OC(CO)C(O)C(O)C4O)C(O)C3O)cc2)NC1=O (centres unmarked) [Example 277a],"Anatomical Pathology (Day 10), Heart",[1],0
same,"Anatomical Pathology (Day 10), Kidney",[1],++
same,MIC Coagulase Negative Staphylococcus (GC 4547),Staphylococcus sp.,>128 µg/mL
same,MIC Coagulase Negative Staphylococcus (GC 4548),Staphylococcus sp.,>128 µg/mL
same,MIC Coagulase Negative Staphylococcus (GC 4549),Staphylococcus sp.,>128 µg/mL
same,MIC Coagulase Negative Staphylococcus (GC 4551),Staphylococcus sp.,>128 µg/mL
same,MIC Staphylococcus aureus (ATCC 29213),Staphylococcus sp.,>128 µg/mL
same,MIC Staphylococcus aureus (GC 1131),Staphylococcus sp.,>128 µg/mL
same,MIC Staphylococcus aureus (GC 3051),Staphylococcus sp.,>128 µg/mL
same,MIC Staphylococcus aureus (GC 3053),Staphylococcus sp.,>128 µg/mL
same,MIC Staphylococcus aureus (GC 4541),Staphylococcus sp.,>128 µg/mL
same,MIC Staphylococcus aureus (GC 4542),Staphylococcus sp.,>128 µg/mL
same,MIC Staphylococcus aureus (GC 4544),Staphylococcus sp.,>128 µg/mL
same,MIC Staphylococcus aureus (GC 4545),Staphylococcus sp.,>128 µg/mL
same,MIC Staphylococcus aureus-SMITH (GC 4543),Staphylococcus sp.,>128 µg/mL
same,MIC Staphylococcus haemolyticus (GC 4546),Staphylococcus sp.,>128 µg/mL
same,MIC Staphylococcus aureus (ATCC 29213),Staphylococcus sp.; strain ATCC 29213,>128 µg/mL
same,MIC Staphylococcus aureus (GC 1131),Staphylococcus sp.; strain GC 1131,>128 µg/mL
same,MIC Staphylococcus aureus (GC 3051),Staphylococcus sp.; strain GC 3051,>128 µg/mL
same,MIC Staphylococcus aureus (GC 3053),Staphylococcus sp.; strain GC 3053,>128 µg/mL
same,MIC Staphylococcus aureus (GC 4541),Staphylococcus sp.; strain GC 4541,>128 µg/mL
same,MIC Staphylococcus aureus (GC 4542),Staphylococcus sp.; strain GC 4542,>128 µg/mL
same,MIC Staphylococcus aureus (GC 4544),Staphylococcus sp.; strain GC 4544,>128 µg/mL
same,MIC Staphylococcus aureus (GC 4545),Staphylococcus sp.; strain GC 4545,>128 µg/mL
same,MIC Staphylococcus haemolyticus (GC 4546),Staphylococcus sp.; strain GC 4546,>128 µg/mL
same,MIC Coagulase Negative Staphylococcus (GC 4547),Staphylococcus sp.; strain GC 4547,>128 µg/mL
same,MIC Coagulase Negative Staphylococcus (GC 4548),Staphylococcus sp.; strain GC 4548,>128 µg/mL
same,MIC Coagulase Negative Staphylococcus (GC 4549),Staphylococcus sp.; strain GC 4549,>128 µg/mL
same,MIC Coagulase Negative Staphylococcus (GC 4551),Staphylococcus sp.; strain GC 4551,>128 µg/mL
same,MIC Staphylococcus aureus-SMITH (GC 4543),Staphylococcus sp.; strain SMITH GC 4543,>128 µg/mL
same,MIC Enterococcus avium (GC 4558),Enterococcus sp.; Enterococcus avium (GC 4558),128 µg/mL
same,MIC Enterococcus faecalis (ATCC 29212),Enterococcus sp.; Enterococcus faecalis (ATCC 29212),>128 µg/mL
same,MIC Enterococcus faecalis (GC 4553),Enterococcus sp.; Enterococcus faecalis (GC 4553),>128 µg/mL
same,MIC Enterococcus faecalis (GC 4554),Enterococcus sp.; Enterococcus faecalis (GC 4554),>128 µg/mL
same,MIC Enterococcus faecalis (GC 6189),Enterococcus sp.; Enterococcus faecalis (GC 6189),>128 µg/mL
same,MIC Enterococcus faecium (GC 2243),Enterococcus sp.; Enterococcus faecium (GC 2243),>128 µg/mL
same,MIC Enterococcus faecium (GC 4556),Enterococcus sp.; Enterococcus faecium (GC 4556),>128 µg/mL
same,MIC Enterococcus faecium (GC 4557),Enterococcus sp.; Enterococcus faecium (GC 4557),128 µg/mL
same,MIC Enterococcus faecalis (ATCC 29212),Enterococcus sp.; strain ATCC 29212,>128 µg/mL
same,MIC Enterococcus faecalis (GC 2242),Enterococcus sp.; strain GC 2242,>128 µg/mL
same,MIC Enterococcus faecium (GC 2243),Enterococcus sp.; strain GC 2243,>128 µg/mL
same,MIC Enterococcus faecalis (GC 2691),Enterococcus sp.; strain GC 2691,>128 µg/mL
same,MIC Enterococcus faecalis (GC 3059),Enterococcus sp.; strain GC 3059,>128 µg/mL
same,MIC Enterococcus faecalis (GC 4552),Enterococcus sp.; strain GC 4552,>128 µg/mL
same,MIC Enterococcus faecalis (GC 4553),Enterococcus sp.; strain GC 4553,>128 µg/mL
same,MIC Enterococcus faecalis (GC 4554),Enterococcus sp.; strain GC 4554,>128 µg/mL
same,MIC Enterococcus faecium (GC 4556),Enterococcus sp.; strain GC 4556,>128 µg/mL
same,MIC Enterococcus faecium (GC 4557),Enterococcus sp.; strain GC 4557,128 µg/mL
same,MIC Enterococcus avium (GC 4558),Enterococcus sp.; strain GC 4558,128 µg/mL
same,MIC Enterococcus faecalis (GC 6189),Enterococcus sp.; strain GC 6189,>128 µg/mL
same,MIC Escherichia coli (ATCC 25922),Escherichia coli; Escherichia coli (ATCC 25922),>128 µg/mL
same,MIC Escherichia coli (GC 4559),Escherichia coli; Escherichia coli (GC 4559),>128 µg/mL
same,MIC Escherichia coli (GC 4560),Escherichia coli; Escherichia coli (GC 4560),>128 µg/mL
same,MIC Streptococcus pneumoniae (ATCC 6301),Streptococcus sp.; strain ATCC 6301,>128 µg/mL
same,MIC Streptococcus pneumoniae (GC 1894),Streptococcus sp.; strain GC 1894,>128 µg/mL
same,MIC Streptococcus pyogenes (GC 4563),Streptococcus sp.; strain GC 4563,>128 µg/mL
same,MIC Streptococcus agalactiae (GC 4564),Streptococcus sp.; strain GC 4564,>128 µg/mL
same,MIC Streptococcus pneumoniae (GC 4565),Streptococcus sp.; strain GC 4565,>128 µg/mL
same,"Clinical Chemistry (Day 10) % of Control, BUN",[2],+110%
